Measured values as given in patent US12559496B2, “Imidazopyrimidines as modulators of IL-17” (Janssen Pharmaceutica NV, priority 2020, dated 2026).

Experiments:
[1] = biological target: IL-17A(FLAG-Tagged): IL-17RA(His-Tagged) (Homo sapiens, UniProt Q16552, K93Q); assay: IL-17A(FLAG-Tagged): IL-17RA(His-Tagged) Binding Disruption Eu-HTRF Assay; details: disruption of IL-17A/IL-17RA binding; simple average if tested more than once
Procedure, shortened: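 Compound (22-point 2-fold series) was preincubated 1 h at rt with FLAG-IL-17A, then His-IL-17RA, Eu-anti-FLAG and D2-anti-His were added in PBS/0.01% Triton X-100 with 200 mM KF for 2 h at rt. The ratio of 665 and 620 nm intensities versus concentration was fitted to one-site competition for IC50.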

[2] = test system: IL-17A-induced G-CSF production in human normal keratinocytes (NHK); assay: NHK Assay: IL-17A-induced G-CSF production in human normal keratinocytes; type: cell-based; details: Homo sapiens, Keratinocyte, 24 h, IL-17A 5 ng/mL, 5% FBS, simple average if tested more than once
Procedure, shortened: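 Adult normal human keratinocytes treated 24 h at 37 °C with IL-17A (5 ng/mL final) pre-incubated 1 h at rt with titrated compound; 0.2% DMSO, 5% FBS. G-CSF in supernatant measured by HTRF against a standard curve to give IC50; viability checked by CellTiter-Glo.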

Chain of UniProt Q16552 (Q16552 with tags, fused parts or gaps K93Q): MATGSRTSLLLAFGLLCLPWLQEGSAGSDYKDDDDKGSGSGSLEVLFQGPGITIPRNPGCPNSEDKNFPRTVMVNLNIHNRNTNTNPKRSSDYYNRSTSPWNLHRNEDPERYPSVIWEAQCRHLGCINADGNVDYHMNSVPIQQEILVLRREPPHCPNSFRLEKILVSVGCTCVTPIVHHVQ

In the case of `O=C(CC1CC(F)(F)C1)N[C@@H](c1ccn2cc([C@@H](NC(=O)c3conc3CCC(F)(F)F)C3CCC(F)(F)CC3)nc2n1)C1CC1` [Example 26, N—((S)-(7-((R)-Cyclopropyl(2-(3,3-difluorocyclobutyl)acetamido)methyl)imidazo[1,2-a]pyrimidin-2-yl)(4,4-difluorocyclohexyl)methyl)-3-(3,3,3-trifluoropropyl)isoxazole-4-carboxamide], the IC50 [1] is reported as 130 nM and the IC50 [2] is reported as 110 nM.
`O=C(CC1CC(F)(F)C1)N[C@H](c1ccn2cc([C@@H](NC(=O)c3conc3C3CC3)C3CCC(F)(F)CC3)nc2n1)C1CC1` [Example 27, 3-Cyclopropyl-N—((S)-(7-((S)-cyclopropyl(2-(3,3-difluorocyclobutyl)acetamido)methyl)imidazo[1,2-a]pyrimidin-2-yl)(4,4-difluorocyclohexyl)methyl)isoxazole-4-carboxamide] was tested, and the IC50 [1] was 3800 nM and the IC50 [2] was 2600 nM.
With `O=C(CC1CC(F)(F)C1)N[C@H](c1ccn2cc([C@@H](NC(=O)c3ccnc(CC(F)(F)F)c3)C3CCC(F)(F)CC3)nc2n1)C1CC1` [Example 28, N—((S)-(7-((S)-Cyclopropyl(2-(3,3-difluorocyclobutyl)acetamido)methyl)imidazo[1,2-a]pyrimidin-2-yl)(4,4-difluorocyclohexyl)methyl)-2-(2,2,2-trifluoroethyl)isonicotinamide] the IC50 [1] was 5400 nM and the IC50 [2] was 1200 nM.
With `O=C(CC1CC(F)(F)C1)N[C@H](c1ccn2cc([C@@H](NC(=O)c3conc3CCC(F)(F)F)C3CCC(F)(F)CC3)nc2n1)C1CC1` [Example 29, N—((S)-(7-((S)-Cyclopropyl(2-(3,3-difluorocyclobutyl)acetamido)methyl)imidazo[1,2-a]pyrimidin-2-yl)(4,4-difluorocyclohexyl)methyl)-3-(3,3,3-trifluoropropyl)isoxazole-4-carboxamide] the IC50 [1] was 2300 nM and the IC50 [2] was 2600 nM.
`O=C(CCC(F)(F)F)N[C@@H](c1ccn2cc([C@@H](NC(=O)c3conc3CCC(F)(F)F)C3CCC(F)(F)CC3)nc2n1)C1CC1` [Example 30, N—((S)-(7-((R)-Cyclopropyl(4,4,4-trifluorobutanamido)methyl)imidazo[1,2-a]pyrimidin-2-yl)(4,4-difluorocyclohexyl)methyl)-3-(3,3,3-trifluoropropyl)isoxazole-4-carboxamide] gave an IC50 [1] of 110 nM and an IC50 [2] of 74 nM.
In the case of `O=C(CCC(F)(F)F)N[C@H](c1ccn2cc([C@@H](NC(=O)c3cnn(CC4CC4)n3)C3CCC(F)(F)CC3)nc2n1)C1CC1` [Example 31, N—((S)-(7-((S)-Cyclopropyl(4,4,4-trifluorobutanamido)methyl)imidazo[1,2-a]pyrimidin-2-yl)(4,4-difluorocyclohexyl)methyl)-2-(cyclopropylmethyl)-2H-1,2,3-triazole-4-carboxamide], the IC50 [1] is reported as 3000 nM and the IC50 [2] is reported as > 20000 nM.
In the case of `O=C(CCC(F)(F)F)N[C@@H](c1ccn2cc([C@@H](NC(=O)c3ncnn3CC3CC3)C3CCC(F)(F)CC3)nc2n1)C1CC1` [Example 32, N—((S)-(7-((R)-Cyclopropyl(4,4,4-trifluorobutanamido)methyl)imidazo[1,2-a]pyrimidin-2-yl)(4,4-difluorocyclohexyl)methyl)-1-(cyclopropylmethyl)-1H-1,2,4-triazole-5-carboxamide], the IC50 [1] is reported as 170 nM and the IC50 [2] is reported as 520 nM.
In the case of `O=C(CCC(F)(F)F)N[C@H](c1ccn2cc([C@@H](NC(=O)c3ncnn3CC3CC3)C3CCC(F)(F)CC3)nc2n1)C1CC1` [Example 33, N—((S)-(7-((S)-Cyclopropyl(4,4,4-trifluorobutanamido)methyl)imidazo[1,2-a]pyrimidin-2-yl)(4,4-difluorocyclohexyl)methyl)-1-(cyclopropylmethyl)-1H-1,2,4-triazole-5-carboxamide], the IC50 [1] is reported as 8700 nM and the IC50 [2] is reported as > 20000 nM.
`O=C(CCC(F)(F)F)N[C@@H](c1ccn2cc([C@@H](NC(=O)c3cnn(CC4CC4)n3)C3CCC(F)(F)CC3)nc2n1)C1CC1` [Example 34, N—((S)-(7-((R)-Cyclopropyl(4,4,4-trifluorobutanamido)methyl)imidazo[1,2-a]pyrimidin-2-yl)(4,4-difluorocyclohexyl)methyl)-2-(cyclopropylmethyl)-2H-1,2,3-triazole-4-carboxamide] gave an IC50 [1] of 240 nM and an IC50 [2] of 580 nM.
Compound `CC(C)n1nccc1C(=O)N[C@H](c1nc2nc([C@H](NC(=O)CCC(F)(F)F)C3CC3)ccn2c1F)C1CCC(F)(F)CC1` [Example 35, N—((S)-(7-((R)-Cyclopropyl(4,4,4-trifluorobutanamido)methyl)-3-fluoroimidazo[1,2-a]pyrimidin-2-yl)(4,4-difluorocyclohexyl)methyl)-1-isopropyl-1H-pyrazole-5-carboxamide] has an IC50 [1] of 810 nM and an IC50 [2] of 950 nM.
In the case of `O=C(CCC(F)(F)F)N[C@@H](c1ccn2cc([C@@H](NC(=O)c3conc3C3CC3)C3CCC(F)(F)CC3)nc2n1)C1CC1` [Example 36, 3-Cyclopropyl-N—((S)-(7-((R)-cyclopropyl(4,4,4-trifluorobutanamido)methyl)imidazo[1,2-a]pyrimidin-2-yl)(4,4-difluorocyclohexyl)methyl)isoxazole-4-carboxamide], the IC50 [1] is reported as 220 nM and the IC50 [2] is reported as 190 nM.
With `O=C(CCC(F)(F)F)N[C@H](c1ccn2cc([C@@H](NC(=O)c3conc3C3CC3)C3CCC(F)(F)CC3)nc2n1)C1CC1` [Example 37, 3-Cyclopropyl-N—((S)-(7-((S)-cyclopropyl(4,4,4-trifluorobutanamido)methyl)imidazo[1,2-a]pyrimidin-2-yl)(4,4-difluorocyclohexyl)methyl)isoxazole-4-carboxamide] the IC50 [1] was 1400 nM and the IC50 [2] was > 20000 nM.
`O=C(CCC(F)(F)F)N[C@@H](c1ccn2cc([C@@H](NC(=O)c3ccnc(CC(F)(F)F)c3)C3CCC(F)(F)CC3)nc2n1)C1CC1` [Example 48, N—((S)-(7-((R)-Cyclopropyl(4,4,4-trifluorobutanamido)methyl)imidazo[1,2-a]pyrimidin-2-yl)(4,4-difluorocyclohexyl)methyl)-2-(2,2,2-trifluoroethyl)isonicotinamide] showed an IC50 [1] of 160 nM and an IC50 [2] of 170 nM.
For `Cc1nonc1C(=O)N[C@H](c1cn2ccc([C@H](NC(=O)CC34CC(F)(C3)C4)C3CC3)nc2n1)C1CCC(F)(F)CC1` [Example 59, N—((S)-(7-((R)-Cyclopropyl(2-(3-fluorobicyclo[1.1.1]pentan-1-yl)acetamido)methyl)imidazo[1,2-a]pyrimidin-2-yl)(4,4-difluorocyclohexyl)methyl)-4-methyl-1,2,5-oxadiazole-3-carboxamide], the IC50 [1] was 390 nM and the IC50 [2] was 990 nM.
`Cc1nonc1C(=O)N[C@H](c1cn2ccc([C@H](NC(=O)C[C@H](C)C(F)F)C3CC3)nc2n1)C1CCC(F)(F)CC1` [Example 60, N—((S)-(7-((R)-Cyclopropyl((S)-4,4-difluoro-3-methylbutanamido)methyl)imidazo[1,2-a]pyrimidin-2-yl)(4,4-difluorocyclohexyl)methyl)-4-methyl-1,2,5-oxadiazole-3-carboxamide] was tested, and the IC50 [1] was 380 nM and the IC50 [2] was 760 nM.
`Cc1nonc1C(=O)N[C@H](c1cn2ccc([C@H](NC(=O)C[C@H]3C[C@H](F)C3)C3CC3)nc2n1)C1CCC(F)(F)CC1` [Example 61, N—((S)-(7-((R)-Cyclopropyl(2-((1r,3S)-3-fluorocyclobutyl)acetamido)methyl)imidazo[1,2-a]pyrimidin-2-yl)(4,4-difluorocyclohexyl)methyl)-4-methyl-1,2,5-oxadiazole-3-carboxamide] showed an IC50 [1] of 460 nM and an IC50 [2] of 2300 nM.
